Data taken from PMC9833666, “Designing and identifying β-hairpin peptide macrocycles with antibiotic potential” (Science Advances, 2023).
Like-named read-outs stand apart in the source and are kept apart here. Bridge positions count the residues as written; N and C are the ends. Peptide text beside a SMILES is read from it.

Tests used:
[1] = system: Single-donor human red blood cells; assay: Hemolysis assay; format: cell-based; conditions: hemolysis at 128 µg/ml, fold change relative to SySA-5
Method: Single-donor human red blood cells (Innovative Research, no. IWB3ALS) were washed in PBS and adjusted to a concentration of 1 × 10^9 cells/ml. Each peptide was added individually to 200 μl of cells at a concentration of either 300 μg/ml (SySA library) or 128 μg/ml (SySA-5 optimization library) in a 96-well polypropylene plate (Corning, 3879). PBS alone and 1% Triton X-100 were used for background normalization and 100% hemolysis, respectively. Each reaction was set up in triplicate. Plates were incubated for 3 hours at 37°C. Following incubation, samples were centrifuged at 800g for 20 min, and 100 μl of supernatant was transferred to a flat-bottom 96-well plate (Genesse, 25-104). Percent hemolysis for each sample was determined by normalizing the absorbance at 540 nm for each sample to the average background and dividing by the average absorbance for 1% Triton X-100 (100% hemolysis). Error bars represent 1 SD of triplicate samples.

[2] = system: Acinetobacter baumannii AB5075; conditions: for AB5075 MIC FBS: 100% fetal bovine serum; for AB5075 MIC MH: Mueller-Hinton
Method: MICs were performed by a modifiedClinical and Laboratory Standards Institute) procedure. […] Separately, E. coli W3110 or A. baumannii AB5075 was grown overnight in 5 ml of standard MH at 37°C. Cells from these cultures were diluted to a concentration of 5 × 10^5 to 6 × 10^5 cells/ml in either standard MH, MHII, RPMI, or fetal bovine serum, and 90 μl was added to each well of the 96-well plate containing diluted peptide. Plates were wrapped twice in parafilm and incubated at 37°C for 18 to 24 hours. Wells were examined by eye against wells with no bacteria for signs of growth. MICs were reported as the minimum concentration with no observable growth. In cases where triplicate samples differed, the concentration supported by the median of the three replicates was reported. […]
For consistency, all SynCH peptides were resuspended at 10 mg/ml in water. Peptides were then visually inspected for any lack of solubility (Data File S1). […]
We had this library commercially synthesized and tested its ability to inhibit the growth of Acinetobacter baumannii AB5075, a clinically isolated Carbapenem Resistant Acinetobacter (CRA) pathogen. MICs were performed in MH as well as 100% FBS, which is likely more representative of the in vivo environment. […]

Row | SMILES | Fold Change Hemolysis [1] | AB5075 MIC FBS ([2]; replicate 1) [µg/mL] | AB5075 MIC FBS ([2]; replicate 2) [µg/mL] | AB5075 MIC FBS ([2]; replicate 3) [µg/mL] | AB5075 MIC MH ([2]; replicate 1) [µg/mL] | AB5075 MIC MH ([2]; replicate 2) [µg/mL] | AB5075 MIC MH ([2]; replicate 3) [µg/mL]
1 | CC(C)C[C@@H]1NC(=O)[C@H](CO)NC(=O)[C@H](C(C)C)NC(=O)[C@H](CCCCN)NC(=O)[C@@H]2CSSC[C@H](NC(=O)[C@H](CC(N)=O)NC(=O)[C@H](CC(C)C)NC(=O)[C@H](CCCNC(=N)N)NC(=O)[C@H](C(C)C)NC(=O)[C@H](CCCNC(=N)N)NC(=O)[C@@H](N)CSSC[C@@H](C(=O)O)NC(=O)[C@H](CCC(N)=O)NC1=O)C(=O)N[C@@H](CCCNC(=N)N)C(=O)N[C@@H](CCCNC(=N)N)C(=O)NCC(=O)N[C@@H](CCCNC(=N)N)C(=O)N2 [SySA-5.15] (H-CRVRLNCRRGRCKVSLQC-OH; disulfide 1-18, 7-12 (inferred); N-terminus and C-terminus assumed) | 1.3 | >128 | >128 | >128 | 16 | 16 | 16
2 | CC(C)C[C@@H]1NC(=O)[C@H](CCCNC(=N)N)NC(=O)[C@H](C(C)C)NC(=O)[C@@H]2CSSC[C@H](NC(=O)[C@H](CC(C)C)NC(=O)[C@H](CCCNC(=N)N)NC(=O)[C@H](C(C)C)NC(=O)[C@H](CCCNC(=N)N)NC(=O)[C@@H](N)CSSC[C@@H](C(=O)O)NC(=O)[C@H](CCCNC(=N)N)NC1=O)C(=O)N[C@@H](CCCNC(=N)N)C(=O)N[C@@H](CCCNC(=N)N)C(=O)N[C@@H](CCCNC(=N)N)C(=O)N[C@@H](CCCNC(=N)N)C(=O)N2 [SySA-5.26] (H-CRVRLCRRRRCVRLRC-OH; disulfide 1-16, 6-11 (inferred); N-terminus and C-terminus assumed) | 0.8 | >128 | >128 | >128 | 8 | 8 | 8
3 | CC(C)C[C@@H]1NC(=O)[C@H](CO)NC(=O)[C@H](C(C)C)NC(=O)[C@@H]2CSSC[C@H](NC(=O)[C@H](CC(C)C)NC(=O)[C@H](CCCNC(=N)N)NC(=O)[C@H](C(C)C)NC(=O)[C@H](CCCNC(=N)N)NC(=O)[C@H](CC(C)C)NC(=O)[C@@H](N)CSSC[C@@H](C(=O)O)NC(=O)[C@H](C(C)C)NC(=O)[C@H](CCCNC(=N)N)NC1=O)C(=O)N[C@@H](CCCNC(=N)N)C(=O)N[C@@H](CCCNC(=N)N)C(=O)NCC(=O)N[C@@H](CCCNC(=N)N)C(=O)N2 [SySA-5.13] (H-CLRVRLCRRGRCVSLRVC-OH; disulfide 1-18, 7-12 (inferred); N-terminus and C-terminus assumed) | 3.2 | >128 | >128 | >128 | 32 | 8 | 16
4 | CC(C)C[C@@H]1NC(=O)[C@H](CCCNC(=N)N)NC(=O)[C@H](C(C)C)NC(=O)[C@@H]2CSSC[C@H](NC(=O)[C@H](CC(C)C)NC(=O)[C@H](CCCNC(=N)N)NC(=O)[C@H](C(C)C)NC(=O)[C@H](CCCNC(=N)N)NC(=O)[C@H](CC(C)C)NC(=O)[C@@H](N)CSSC[C@@H](C(=O)O)NC(=O)[C@H](C(C)C)NC(=O)[C@H](CCCNC(=N)N)NC1=O)C(=O)N[C@@H](CCCNC(=N)N)C(=O)N[C@@H](CCCNC(=N)N)C(=O)N[C@@H](CCCNC(=N)N)C(=O)N[C@@H](CCCNC(=N)N)C(=O)N2 [SySA-5.14] (H-CLRVRLCRRRRCVRLRVC-OH; disulfide 1-18, 7-12 (inferred); N-terminus and C-terminus assumed) | 5.6 | 64 | 64 | 64 | 8 | 4 | 4
